In patent EP0318620A1, “Herbicidal sulfonamides” (E.I. DU PONT DE NEMOURS AND COMPANY, priority 1987, dated 1989):

What was measured:
Experiment in all cases: Test A greenhouse herbicide test, pre- and postemergence
Type in all cases: in vivo
sugarbeet = conditions: POSTEMERGENCE, rated after sixteen days
Source text: (§1) Seeds of crabgrass (Digitaria spp.), barnyardgrass (Echinochloa crusgalli), cheatgrass (Bromus Secalinus), giant foxtail (Setaria faberii), wild oats (Avena fatua), velvetleaf (Abutilon theophrasti), morningglory (Ipomoea spp. , cocklebur (Xanthium pensylvanicum). sorghum, corn, barley, soybean, sugarbeet, cotton, rice, wheat and purple nutsedge (Cyperus rotundus) tubers were planted and treated preemergence with the test chemicals dissolved in a non-phytotoxic solvent. At the same time, these crop and weed species were treated with a soil/foliage application. At the time of treatment, the plants ranged in height from 2 to 18 cm. Treated plants and controls were maintained in a greenhouse for sixteen days, after which all species were compared to controls and visually rated for response to treatment. The ratings, summarized in Table A, are based on a numerical scale extending from 0 = no injury, to 10 = complete kill. The accompanying descriptive symbols have the following meanings: • B = burn; • C = chlorosis/necrosis; • D = defoliation; • E = emergence inhibition; • G = growth retardation; • H = formative effect; • U = unusual pigmentation; • X = axillary stimulation; • S = albinism; and • 6Y = abscised buds or flowers.

soybean = conditions: rated after sixteen days
Source text: as §1

sorghum = conditions: POSTEMERGENCE; RATE 0.05 KG/HA; rated after sixteen days
Source text: as §1

cotton = conditions: rated after sixteen days
Source text: as §1

corn = conditions: rated after sixteen days
Source text: as §1

For `CCOC(=O)c1c(CC#N)cccc1S(=O)(=O)NC(=O)Nc1nc(OC)cc(OC)n1` [Compound 3, 2-(cyanomethyl)-6 [[(4,6-dimethoxypyrimidin-2-yl)-aminocarbonyl]aminosulfonyl]benzoic acid, ethyl ester], the “SUGAR BEETS visual rating of response to treatment” value (sugarbeet; RATE 0.01 KG/HA) was 10C, the “SUGAR BEETS visual rating of response to treatment” value (sugarbeet; RATE 0.05 KG/HA) was 10C and the “SOYBEAN visual rating of response to treatment” value (soybean; POSTEMERGENCE, RATE 0.05 KG/HA) was 9C. The “SOYBEAN visual rating of response to treatment” value (soybean; PREEMERGENCE, RATE 0.01 KG/HA) was 5G, the “SORGHUM visual rating of response to treatment” value (sorghum) was 9C and the “COTTON visual rating of response to treatment” value (from here on “COTTON visual rating”) (cotton; POSTEMERGENCE, RATE 0.01 KG/HA) was 9C. The “COTTON visual rating” value (cotton; POSTEMERGENCE, RATE 0.05 KG/HA) was 10C, the “COTTON visual rating” value (cotton; PREEMERGENCE, RATE 0.01 KG/HA) was 3G and the “CORN visual rating of response to treatment” value (corn; POSTEMERGENCE, RATE 0.01 KG/HA) was 10C. For the same molecule, the “CORN visual rating of response to treatment” value (corn; PREEMERGENCE, RATE 0.05 KG/HA) was 9H.
